BigSolDB 2.1

Cc1c(OCC(F)(F)F)ccnc1CS(=O)c1nc2ccccc2[nH]1 (stereo unspecified)
solubility (mole fraction)
Conditions | in 2-butanone | in MIBK | in acetone | in ethyl acetate | in isobutyl acetate | in isopropanol | in n-butanol | in n-butyl acetate | in n-pentanol | in n-propanol
283.15 K | 0.00289 | 0.0013 | 0.00249 | 0.00137 | 0.000784 | 0.00082 | 0.0012 | 0.000987 | 0.00138 | 0.00166
288.15 K | 0.00349 | 0.00154 | – | 0.00164 | 0.000965 | 0.000922 | 0.00166 | 0.0012 | 0.00184 | 0.00206
290.15 K | – | – | 0.0031 | – | – | – | – | – | – | –
293.15 K | 0.00412 | 0.00183 | – | 0.002 | 0.00117 | 0.00124 | 0.00215 | 0.00144 | 0.00227 | 0.0026
297.15 K | – | – | 0.00395 | – | – | – | – | – | – | –
298.15 K | 0.00489 | 0.00216 | – | 0.00245 | 0.00136 | 0.00161 | 0.0027 | 0.00172 | 0.00281 | 0.00314
303.15 K | 0.00578 | 0.00255 | – | 0.00291 | 0.00161 | 0.00202 | 0.00336 | 0.00195 | 0.00344 | 0.00388
304.15 K | – | – | 0.00494 | – | – | – | – | – | – | –
308.15 K | 0.00697 | 0.00307 | – | 0.00343 | 0.00193 | 0.00261 | 0.00419 | 0.00232 | 0.00412 | 0.00468
311.15 K | – | – | 0.00626 | – | – | – | – | – | – | –
313.15 K | 0.0083 | 0.00362 | – | 0.00416 | 0.00228 | 0.00333 | 0.00515 | 0.00271 | 0.00518 | 0.00588
318.15 K | – | – | 0.00801 | 0.00469 | – | 0.00422 | – | – | – | –
